Source: patent US11203600B2 (Denali Therapeutics Inc., priority 2017, dated 2021)

biological target: GST-hRIPK1 (8-327) (Homo sapiens (Human), UniProt Q13546); assay: Fluorescent Polarization Binding (FP Binding) assay, RIPK1; conditions: 10 nM GST-hRIPK1 (8-327), 5 nM fluorescent-labeled ligand, RT, 30 min, mean of at least two independent experiments
In short: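 Compound displacement of 5 nM labelled ligand from 10 nM GST-hRIPK1 (8-327) was read as FP (531/595 nm) after 30 min at RT. Buffer: HEPES pH 7.5, NaCl, MgCl2, CHAPS, DTT, Pluronic; 1% DMSO final. IC50s were averaged over at least two independent runs.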

Sequence of GST-hRIPK1 (8-327) (Q13546 8-327): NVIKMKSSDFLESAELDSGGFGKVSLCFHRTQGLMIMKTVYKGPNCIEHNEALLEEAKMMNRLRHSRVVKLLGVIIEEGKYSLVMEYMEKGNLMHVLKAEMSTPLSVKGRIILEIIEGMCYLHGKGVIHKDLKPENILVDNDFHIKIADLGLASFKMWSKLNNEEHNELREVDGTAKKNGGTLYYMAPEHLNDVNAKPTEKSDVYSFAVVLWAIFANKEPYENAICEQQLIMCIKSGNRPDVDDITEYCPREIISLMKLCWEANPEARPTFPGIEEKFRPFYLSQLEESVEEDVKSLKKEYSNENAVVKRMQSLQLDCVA

Compound	IC50 [nM]
Cn1ccc2nc(N3CCC(F)(C(=O)N4CCOc5c(C#N)cncc5C4)CC3)ncc21 [Example 108, 4-[4-fluoro-1-(5-methylpyrrolo[3,2-d]pyrimidin-2-yl)piperidine-4-carbonyl]-3,5-dihydro-2H-pyrido[3,4-f][1,4]oxazepine-9-carbonitrile]	100 to 1000
CC(C#N)C(C)(C)C(=O)N1CCOc2c(C#N)cncc2C1 (stereo not shown) [Example 72]	100 to 1000
CC(C)(C(=O)N1CCOc2c(F)cccc2C1)C(F)F [Example 13, 3,3-difluoro-1-(9-fluoro-2,3-dihydrobenzo[f][1,4]oxazepin-4(5H)-yl)-2,2-dimethylpropan-1-one]	0.1 to 100
N#Cc1cncc2c1OCCN(C(=O)C1(C(F)F)CC1)C2 [Example 139, 4-[1-(difluoromethyl)cyclopropanecarbonyl)-3,5-dihydro-2H-pyrido[3,4-f][1,4]oxazepine-9-carbonitrile]	> 1000
CCC(C)(CC#N)C(=O)N1CCOc2c(F)cncc2C1 (stereo not shown) [Example 73, 3-(9-fluoro-3,5-dihydro-2H-pyrido[3,4-f][1,4]oxazepine-4-carbonyl)-3-methyl-pentanenitrile]	100 to 1000
N#Cc1cncc2c1OCCN(C(=O)C(F)(F)C(F)(F)C(F)(F)F)C2 [Example 143, 4-(2,2,3,3,4,4,4,-heptafluorobutanoyl)-3,5-dihydro-2H-pyrido[3,4-f][1,4]oxazepine-9-carbonitrile]	> 1000
N#Cc1cncc2c1OCCN(C(=O)C1CCN(c3ncc(F)cn3)CC1)C2 [Example 155, 4-[1-(5-fluoropyrimidin-2-yl)piperidine-4-carbonyl]-3,5-dihydro-2H-pyrido[3,4-f][1,4]oxazepine-9-carbonitrile]	0.1 to 100
COC1(C(=O)N2CCOc3c(F)cncc3C2)CCN(c2nccc(OCC(F)F)n2)CC1 [Example 134, [1-[4-(2,2-difluoroethoxy)pyrimidin-2-yl]-4-methoxy-4-piperidyl]-(9-fluoro-3,5-dihydro-2H-pyrido[3,4-f][1,4]oxazepin-4-yl)methanone]	100 to 1000
CSc1nc(N2CCC(F)(C(=O)N3CCOc4c(C#N)cncc4C3)CC2)ncc1F [Example 126, 4-[4-fluoro-1-(5-fluoro-4-methylsulfanyl-pyrimidin-2-yl)piperidine-4-carbonyl]-3,5-dihydro-2H-pyrido[3,4-f][1,4]oxazepine-9-carbonitrile]	0.1 to 100
CC(C)(C(=O)N1CCOc2ccncc2C1)C(F)F [Example 35, 1-(2,3-dihydropyrido[3,4-f][1,4]oxazepin-4(5H)-yl)-3,3-difluoro-2,2-dimethylpropan-1-one]	100 to 1000
CC(C)(C(=O)N1CCOc2c(Br)cc(F)cc2C1)C(F)F [Example 37, 1-(9-bromo-7-fluoro-3,5-dihydro-2H-1,4-benzoxazepin-4-yl)-3,3-difluoro-2,2-dimethyl-propan-1-one]	100 to 1000
CC1(C(=O)N2CCOc3c(C#N)cncc3C2)CC(F)(F)C1 [Example 138, 4-(3,3-difluoro-1-methyl-cyclobutanecarbonyl)-3,5-dihydro-2H-pyrido[3,4-f][1,4]oxazepine-9-carbonitrile]	100 to 1000
C[C@@H]1COc2c(C#N)cncc2CN1C(=O)C(C)(C)CF [Example 77, (3R)-4-(3-fluoro-2,2-dimethyl-propanoyl)-3-methyl-3,5-dihydro-2H-pyrido[3,4-f][1,4]oxazepine-9-carbonitrile]	0.1 to 100
CC(C)(Cl)C(=O)N1CCOc2c(C#N)cncc2C1 [Example 158, 4-(2-chloro-2-methyl-propanoyl)-3,5-dihydro-2H-pyrido[3,4-f][1,4]oxazepine-9-carbonitrile]	0.1 to 100
CC1CN(c2ncc(F)cn2)CCC1C(=O)N1CCOc2c(C#N)cncc2C1 (stereo not shown) [Example 187, 4-[1-(5-fluoropyrimidin-2-yl)-3-methyl-piperidine-4-carbonyl]-3,5-dihydro-2H-pyrido[3,4-f][1,4]oxazepine-9-carbonitrile]	0.1 to 100
CC(C)(COC(F)(F)F)C(=O)N1CCOc2c(C#N)cncc2C1 [Example 51, 4-[2,2-dimethyl-3-(trifluoromethoxy)propanoyl]-3,5-dihydro-2H-pyrido[3,4-f][1,4]oxazepine-9-carbonitrile]	0.1 to 100
CC(C#N)C(C)(C)C(=O)N1CCOc2c(F)cncc2C1 (stereo not shown) [Example 71, 4-(9-fluoro-2,3-dihydropyrido[3,4-f][1,4]oxazepin-4(5H)-yl)-2,3,3-trimethyl-4-oxobutanenitrile]	> 1000
CC1(C(=O)N2CCOc3c(C#N)cncc3C2)CCOCC1 [Example 41, 4-(4-methyltetrahydropyran-4-carbonyl)-3,5-dihydro-2H-pyrido[3,4-f][1,4]oxazepine-9-carbonitrile]	100 to 1000
COc1nc(N2CCC(F)(C(=O)N3CCOc4c(C#N)cncc4C3)CC2)ncc1Cl [Example 128, 4-[1-(5-chloro-4-methoxy-pyrimidin-2-yl)-4-fluoro-piperidine-4-carbonyl]-3,5-dihydro-2H-pyrido[3,4-f][1,4]oxazepine-9-carbonitrile]	0.1 to 100
CC(C)(C(=O)N1CCOc2c(C#N)cncc2C1)C1CC1C(F)F (stereo not shown) [Example 82, 4-[2-(-2-(difluoromethyl)cyclopropyl)-2-methyl-propanoyl]-3,5-dihydro-2H-pyrido[3,4-f][1,4]oxazepine-9-carbonitrile]	100 to 1000
CCOc1nc(N2CCC(F)(C(=O)N3CCOc4c(C#N)cncc4C3)CC2)ncc1F [Example 178, 4-[1-(4-ethoxy-5-fluoro-pyrimidin-2-yl)-4-fluoro-piperidine-4-carbonyl]-3,5-dihydro-2H-pyrido[3,4-f][1,4]oxazepine-9-carbonitrile]	0.1 to 100
CC(F)(F)C(C)(C)C(=O)N1CCOc2c(F)cccc2C1 [Example 18, 3,3-difluoro-1-(9-fluoro-3,5-dihydro-2H-1,4-benzoxazepin-4-yl)-2,2-dimethyl-butan-1-one]	0.1 to 100
CCC1(C(=O)N2CCOc3c(C#N)cncc3C2)CCC1 [Example 64, 4-(1-ethylcyclobutanecarbonyl)-3,5-dihydro-2H-pyrido[3,4-f][1,4]oxazepine-9-carbonitrile]	100 to 1000

same assay, conditions: GST-hRIPK1 (8-327), mean of at least two independent experiments

Compound	IC50 [nM]
CC1(C(=O)N2CCOc3c(C#N)cncc3C2)CCN(c2ncccn2)CC1(F)F (single isomer, unassigned) [Example 297, 4-[3,3-Difluoro-4-methyl-1-pyrimidin-2-yl-piperidine-4-carbonyl]-3,5-dihydro-2H-pyrido[3,4-f][1,4]oxazepine-9-carbonitrile]	0.1 to 100
CC(C)(C(=O)N1CCOc2c(C#N)cncc2C1)[C@H]1C[C@H](Cn2nccn2)C1 [Example 290, trans-4-[2-methyl-2-[3-(triazol-2-ylmethyl)cyclobutyl]propanoyl]-3,5-dihydro-2H-pyrido [3,4-f][1,4]oxazepine-9-carbonitrile]	100 to 1000
CC(C)(C(=O)N1CCOc2c(C#N)cncc2C1)[C@H]1C[C@@H](Cn2ccnn2)C1 [Example 293, cis-4-[2-methyl-2-[3-(triazol-1-ylmethyl)cyclobutyl]propanoyl]-3,5-dihydro-2H-pyrido [3,4-f][1,4]oxazepine-9-carbonitrile]	> 1000
COCCOc1nc(N2CCC(C)(C(=O)N3CCOc4c(C#N)cncc4C3)C(F)(F)C2)ncc1F (stereo not shown) [Example 217, 4-[3,3-difluoro-1-[5-fluoro-4-(2-methoxyethoxy)pyrimidin-2-yl]-4-methyl-piperidine-4-carbonyl]-3,5-dihydro-2H-pyrido[3,4-f][1,4]oxazepine-9-carbonitrile]	0.1 to 100
O=C(C1CCN(c2ncc(F)cn2)C[C@@H]1F)N1CCOc2ccncc2C1 (stereo partly drawn) [Example 254, 3,5-dihydro-2H-pyrido[3,4-f][1,4]oxazepin-4-yl-[(3,4)-trans-3-fluoro-1-(5-fluoropyrimidin-2-yl)-4-piperidyl]methanone]	100 to 1000
CC(F)C(C)(C)C(=O)N1CCOc2c(C#N)cncc2C1 (single isomer, unassigned) [Example 273, 4-(3-Fluoro-2,2-dimethyl-butanoyl)-3,5-dihydro-2H-pyrido[3,4-f][1,4]oxazepine-9-carbonitrile]	100 to 1000
N#Cc1cncc2c1OCCN(C(=O)C1CCN(c3nccn4ncnc34)C[C@@H]1F)C2 (stereo partly drawn) [Example 225, 4-[(3,4)-trans-3-fluoro-1-([1,2,4]triazolo[1,5-a]pyrazin-8-yl)piperidine-4-carbonyl]-3,5-dihydro-2H-pyrido[3,4-f][1,4]oxazepine-9-carbonitrile]	0.1 to 100
N#Cc1cncc2c1OCCN(C(=O)C1CCN(c3ncc(F)cn3)CC1F)C2 (single isomer, unassigned) [Example 306, 4-[3-Fluoro-1-(5-fluoropyrimidin-2-yl)piperidine-4-carbonyl]-3,5-dihydro-2H-pyrido[3,4-f][1,4]oxazepine-9-carbonitrile]	0.1 to 100
O=C(C1CCN(c2nccn3ncnc23)C[C@@H]1F)N1CCOc2c(F)cncc2C1 (stereo partly drawn) [Example 257, (9-fluoro-3,5-dihydro-2H-pyrido[3,4-f][1,4]oxazepin-4-yl)-[(3,4)-trans-3-fluoro-1-([1,2,4]triazolo[1,5-a]pyrazin-8-yl)-4-piperidyl]methanone]	100 to 1000
N#Cc1cncc2c1OCCN(C(=O)C1=CCN(c3ncc(F)cn3)CC1)C2 [Example 245, 4-[1-(5-fluoropyrimidin-2-yl)-3,6-dihydro-2H-pyridine-4-carbonyl]-3,5-dihydro-2H-pyrido[3,4-f][1,4]oxazepine-9-carbonitrile]	100 to 1000
CC(C)(C(=O)N1CCOc2c(C#N)cncc2C1)C1CCN(c2ncc(F)cn2)C1 (single isomer, unassigned) [Example 281, 4-[2-(-1-(5-Fluoropyrimidin-2-yl)pyrrolidin-3-yl)-2-methyl-propanoyl]-3,5-dihydro-2H-pyrido[3,4-f][1,4]oxazepine-9-carbonitrile]	0.1 to 100
